The results in this text go back to ChEMBL document CHEMBL1126725, “Enantioselectivity of cocaine recognition sites: binding of (1S)- and (1R)-2 beta-carbomethoxy-3 beta-(4-iodophenyl)tropane (beta-CIT) to monoamine transporters” (J Med Chem, 1993).

Assay [1] can be described thus: (§1) Tested for its ability to displace [125I]- (1R)-beta-CIT with rat striatal membranes. On the set-up: species or system Striatum, Membrane.
A short description of assay [2]: Tested for its ability to displace [125I]- (1R)-beta-CIT with rat cortical membranes.
Assay [3] has as its target Sodium-dependent serotonin transporter (Homo sapiens, UniProt P31645). Description: Compounds binding ability to serotonin transporter was evaluated by displacing [3H]paroxetine in baboon brain. On the set-up: species or system Papio hamadryas.
The species named for a further assay is Rattus norvegicus. The description is as §1. On the set-up: species or system Membrane. The settings on record: Striatum.

The term IC50 denotes the concentration that gives 50% inhibition. A high value points to weaker potency in that assay.

Sequence of Sodium-dependent serotonin transporter (P31645 whole entry): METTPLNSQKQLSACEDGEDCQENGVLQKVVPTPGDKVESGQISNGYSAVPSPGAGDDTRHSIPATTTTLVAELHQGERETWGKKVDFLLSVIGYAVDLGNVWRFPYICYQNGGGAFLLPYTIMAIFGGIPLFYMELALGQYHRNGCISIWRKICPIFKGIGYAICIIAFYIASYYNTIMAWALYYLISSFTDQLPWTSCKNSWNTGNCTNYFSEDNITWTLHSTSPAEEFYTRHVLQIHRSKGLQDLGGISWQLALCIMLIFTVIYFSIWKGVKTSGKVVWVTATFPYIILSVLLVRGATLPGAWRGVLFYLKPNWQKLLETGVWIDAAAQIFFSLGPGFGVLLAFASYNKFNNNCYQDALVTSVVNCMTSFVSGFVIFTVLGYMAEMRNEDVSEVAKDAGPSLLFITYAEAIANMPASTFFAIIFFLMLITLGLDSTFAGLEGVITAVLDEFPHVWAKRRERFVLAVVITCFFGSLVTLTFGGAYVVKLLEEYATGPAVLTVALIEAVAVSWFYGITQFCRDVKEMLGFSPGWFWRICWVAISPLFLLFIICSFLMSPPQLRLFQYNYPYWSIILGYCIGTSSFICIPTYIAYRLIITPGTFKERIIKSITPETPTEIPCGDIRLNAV

With `COC(=O)[C@@H]1C2CC[C@H](C[C@@H]1c1ccc(I)cc1)N2C`, the IC50 in assay [1] was determined as 5700 nM; in assay [2], 450 nM.
Regarding `COC(=O)C1C2CC[C@H](C[C@@H]1c1ccc(I)cc1)N2C` (stereo not given in full), the IC50 in assay [3] was 3.8 nM; in assay [2], 0.55 nM; in the assay listed under Rattus norvegicus it was 0.42 nM.
